# According to US20080039471A1, “Composition and method to inhibit tissue plasminogen activator (tPA) - potentiated neurotoxicity” (priority 2006, published 2008):
# Assays:
# [1] = tested on: embryonic (E18) rat cortical and striatal neurons; test: LDH assay, glutamate / tPA insult (Example 1); format: cell-based
# Protocol: For this example PAN-811 was dissolved in PEG:EtOH (7:3) to a concentration of 25 mM, and further diluted in neurobasal medium to a final concentration of 2 μM. The control vehicle is 1:12,500 PEG:EtOH (7:3 in BSS).
# (§1) A mixed culture of embryonic (E18) rat cortical and striatal neurons was cultured for 22 days in 50% antioxidative (AO) neurobasal medium (made by replacing 50% of the neurobasal culture medium with a medium comprised of neurobasal plus B27 supplement (minus AO, i.e., without the antioxidants vitamin E, vitamin E acetate, 2.5 mg/L superoxide dismutase, 2.5 mg/L catalase, and 1 mg/L glutathione) (from Invitrogen)), and then divided into test groups in accordance with the following scheme: (1) not insulted (control); (2) insulted with 15 μM glutamate; (3) insulted with 20 μg/ml tPA; or (4) insulted with both 15 μM glutamate and 20 μg/ml tPA, for a period of 24 hours. In a further test category, neurons that were to be insulted for 24 hours with the combination of 15 μM glutamate and 20 μg/ml tPA, were divided into groups in which (1) cells were not pre-treated prior to insult; (2) were pretreated overnight with 1:12,500 vehicle (used for PAN-811), or (3) were pre-treated overnight with PAN-811 (in vehicle).
# (§2) The lactate dehydrogenase (LDH) assay (Promega) is based on the reduction of NAD by the action of LDH. The resulting reduced NAD (NADH) is utilized in the stoichiometric conversion of a tetrazolium dye. If cell-free aliquots of medium from cultures given different treatments are assayed, then the amount of LDH activity can be used as an indicator of relative cell death as well as a function of membrane integrity. A 50 μl aliquot of culture medium from a well in tested 96-well plate is transferred into a well in unused plate and supplemented with 25 μl of equally-mixed Substrate, Enzyme and Dye Solutions (Sigma). The preparation is incubated at room temperature for 20-30 minutes, and then measured spectrophotometrically at wavelength of 490 nm.
# [2] = tested on: embryonic (E18) rat cortical and striatal neurons; test: MTS (mitochondrial function) assay, glutamate / tPA insult (Example 1); format: cell-based; conditions: 15 μM glutamate, 20 μg/ml tPA, insult 24 hours
# Protocol: as §1, with “In a further test category, neurons that were to be insulted for 24 hours with the combination of 15 μM glutamate and 20 μg/ml tPA, were divided into groups in which (1) cells were not pre-treated prior to insult; (2) were pretreated overnight with 1:12,500 vehicle (used for PAN-811), or (3) were pre-treated overnight with PAN-811 (in vehicle).” left out
# The 3-(4,5-dimethylthiazol-2-yl)-5-(3-carboxymethoxyphenyl)-2-(4-sulfophenyl)-2H-tetrazolium (MTS) assay (Promega) is routinely used to evaluate mitochondrial function, and reduced readings are correlated with neuronal cell death. The MTS tetrazolium compound is reduced in metabolically active mitochondria into a colored formazan product that is soluble in tissue culture medium, and can be detected via its absorbance 490 nm. […] The absorbance at 490 nm was recorded using a Bio-Rad 96 well plate reader.
# [3] = tested on: embryonic (E18) rat cortical and striatal neurons; test: Morphological changes, glutamate / tPA insult (Example 1); format: cell-based; conditions: 15 μM glutamate, 20 μg/ml tPA, insult 24 hours
# Protocol: as §1
# The experimental results were evaluated by morphological changes, lactate dehydrogenase (LDH) and MTS (mitochondrial function) analyses.
# [4] = tested on: embryonic (E18) rat cortical and striatal neurons; test: LDH assay, hypoglycemia/hypoxia (H/H) and tPA insult (Example 2); format: cell-based
# Protocol: as §2
# In this example, PAN-811 was dissolved in PEG:EtOH (7:3) to a concentration of 25 mM, and further diluted in neurobasal medium to final concentrations of 1.25, 2.5, 5 and 10 μM. The control vehicle is 1:10,000 PEG:EtOH (7:3 in BSS).
# (§3) A mixed culture of embryonic (E18) rat cortical and striatal neurons was cultured for 13 days in neurobasal medium (Invitrogen), then insulted by hypoglycemia/hypoxia (H/H) conditions for 6 hours, or a combination of H/H and 20 μg/ml tPA. The H/H conditions were 1.2 mM glucose (normally 25 mM in culture medium) and the absence of oxygen for 6 hours. (Following H/H conditions, the cultures were returned to the typical conditions of 25 mM glucose medium and 95% ambient air plus 5% CO2.)
# (§4) In a further experiment, cells that were under H/H conditions and also treated with the tPA were divided into groups, which were either co-treated or post-treated (i.e., during or after the 6 hour insult period) with control vehicle or each of PAN-811 at concentrations of 1.25, 2.5, 5 and 10 μM.
# [5] = tested on: embryonic (E18) rat cortical and striatal neurons; test: MTS assay, H/H and tPA insult (Example 2); format: cell-based; conditions: H/H 6 hours combined with 20 μg/ml tPA
# Protocol: The 3-(4,5-dimethylthiazol-2-yl)-5-(3-carboxymethoxyphenyl)-2-(4-sulfophenyl)-2H-tetrazolium (MTS) assay (Promega) is routinely used to evaluate mitochondrial function, and reduced readings are correlated with neuronal cell death. The MTS tetrazolium compound is reduced in metabolically active mitochondria into a colored formazan product that is soluble in tissue culture medium, and can be detected via its absorbance 490 nm. 10 μl of MTS reagent (Promega) are added to each well of the 96 well assay plates containing the samples in 50 μl of culture medium. The plate is then incubated in a humidified, 5% CO2 atmosphere at 37° C. for 1-2 hours until the color is fully developed. The absorbance at 490 nm was recorded using a Bio-Rad 96 well plate reader.
# as §3
# [6] = tested on: embryonic (E18) rat cortical and striatal neurons; test: Morphological changes, H/H and tPA insult (Example 2); format: cell-based
# Protocol: as §3, §4
# The experimental results were evaluated by morphological changes, and LDH and MTS analyses.
# [7] = tested on: tPA-potentiated, NMDA-mediated, excitotoxic neuronal death; conditions: cited from earlier work
# [8] = systematic administration (Jiang et al.); cited from earlier work
# [9] = single 2-h infusion every 4 weeks, cited from earlier work
molecule,measurement,setting,value
"tPA: Recombinant tissue-type plasminogen activator, a thrombolytic-acting drug approved for ischemic stroke",toxicity to neurons by LDH assay,"[1]; 20 μg/ml tPA alone, 24 hours",not toxic
same,reduction in the MTS reading over the control,[2],did not cause any reduction
same,morphology of neurons,[3],neurons remained healthy
same,enhancement in the LDH reading over control,[4]; H/H 6 hours combined with 20 μg/ml tPA,3.3 fold
same,decrease of MTS reading,[5],51%
same,"morphology, neuronal cell death","[6]; H/H combined with 20 μg/ml tPA, by 17 hours post-insult",robust neuronal cell death
"Cl.Cl.N=C(N)c1ccc(C=C2CCCCC(=Cc3ccc(C(=N)N)cc3)C2=O)cc1 [tPA-Stop™, 2,7-bis-(4-amidino-benzylidene)-cycloheptan-1-one dihydrochloride]","effect on alpha-amino-2,3-dihydro-5-methyl-3-oxo-4-isoxazole propanoic acid or kainate-mediated necrosis",[7],fails to modulate
same,"effect on tPA-potentiated, NMDA-mediated, excitotoxic neuronal death",[7],effective in reducing
"N[C@@H](CCC(=O)O)C(=O)O [glutamate, reference compound]",increase in LDH over the control,"[1]; 15 μM glutamate, 20 μg/ml tPA, insult 24 hours",4.4 fold
same,reduction in the MTS reading over the control,[2],13%
same,morphology of neurons,[3],strong neuronal cell death
"NC(=S)N/N=C/c1ncccc1N [PAN-811, 3-aminopyridine-2-carboxaldehyde thiosemicarbazone]",reduction of LDH reading as compared to no pre-treatment or control vehicle,"[1]; pre-treated overnight with 2 μM PAN-811, insult 15 μM glutamate and 20 μg/ml tPA, 24 hours",about 11%
same,neuroprotection (LDH readings),"[4]; 1.25 μM PAN-811, H/H and tPA",effective in significantly reducing LDH readings
same,protection (LDH),[4]; 5 μM PAN-811 post-insult (H/H and tPA),51%
same,decrease of LDH reading,[4]; co-treated with 5 μM PAN-811 during H/H and tPA insult,23%
same,dose dependence of protection,"[4]; co-treatment or post-treatment, 1.25, 2.5, 5 and 10 μM, H/H and tPA",showed a dose response correlation
same,neuronal morphology,"[6]; co- or post-treatment, 1.25-10 μM PAN-811, H/H and tPA conditions",preserved neuronal morphology
same,passage of the BBB,[8],will pass the BBB
same,well tolerated dose,[9]; 46 courses of therapy,up to 105 mg/m^2
same,dose limiting toxicity,[9]; doses up to 105 mg/m^2,not identified
